{"source": "patent US5158939A", "about": "“Method of stimulating the immune systems of animals and compositions useful therefor” (priority 1990, dated 1992)", "key": {"70Z/3 cells": {"system": "70Z/3 cells", "type": "cell-based", "protocol": "^1 Corrected for background of 5% fluorescence.\n^2 The DPLA stimulated 7OZ/3 preB cells to the extent of from 2.5-6.0\nfluorescence at concentrations of 1.0-10 mg/ml. In the competitive\ninhibition experiment, the cells were first exposed to DPLA for 2 hours\nbefore adding the ReLPS. In all experiments, the ReLPS and DPLA were\ncomplexed with bovine serum albumin.\nIn this experiment, 0.1 μg/ml of ReLPS and 3.0 μg/ml of DPLA were\n^1 The time of pre/post treatment of 7OZ/3 cells with DPLA relative t\nthe time of addition of ReLPS are indicated."}, "peritoneal macrophages": {"system": "peritoneal macrophages", "assay": "Induction of IL-1 in thioglycollate-elicited peritoneal macrophages (comitogenic thymocyte assay)", "type": "cell-based, BDF1 mice", "conditions": "for IL-1 induction, CPM: SD in parentheses; for induction of IL-1 release: DPLA alone 0.1, 1.0, 10 μg/ml", "method": "1L-1 assay--Peritoneal exudate cells were harvested from BDF1 mice 48 h after an intraperitoneal injection of thioglycollate. […] Macrophages were either pretreated with R. sphaeroides DPLA (0.1-10 μg/ml) followed by the addition of toxic Re LPS (0.1 μg) after 2 h, or immediately stimulated with Re LPS (0.01-1.00 μg/ml). Control wells were treated with 10 μl of media containing 0.5% triethylamine. Cultures were incubated at 37° C. in the presence of 5% CO2 for 18 h at which time the supernatants were collected and frozen at -20° C. until assayed. 1L-1 activity was determined by the comitogenic thymocyte assay.^25\nPeritoneal exudate cells were harvested from BDF1 mice 48 h after an intraperitoneal injection of thioglycollate as described previously (Lederer and Czuprynki). Macrophages were either pretreated with R. sphaeroides DPLA (0.1-10 μg/ml) followed by addition of toxic ReLPS (0.1 μg), or immediately stimulated with ReLPS (0.01-1.00 μg/ml). Control wells were treated with 10 μl of media with 0.5% triethylamine. Cultures were incubated at 37° C. in the presence of 5% CO2 for 18 h at which time the supernatants were collected and frozen at -20° C. until assayed.\nReLPS was added to the culture 2 h after adding the R. sphaeroides DPLA. […] Standard deviation in CPM are given in parentheses."}}, "note": "Entries after “also recorded” stand apart in the source; their conditions may differ. Like-named read-outs stand apart in the source and are kept apart here.", "data": [{"smiles": "CCCCCCC=CCCCCCC(=O)OC(CCCCCCCCCCC)CC(=O)NC1C(OCC2OC(OP(=O)(O)O)C(NC(=O)CC(=O)CCCCCCCCCCC)C(OC(=O)CC(O)CCCCCCC)C2O)OC(CO)C(OP(=O)(O)O)C1OC(=O)CC(O)CCCCCCC", "note": "(stereo not shown) [DPLA]", "values": [{"measurement": "Activation (% fluorescence)", "setting": "70Z/3 cells; Table 5, DPLA 1.0 μg/ml, ReLPS 0", "result": 3.5, "unit": "% fluorescence"}, {"measurement": "Activation (% fluorescence)", "setting": "70Z/3 cells; Table 5, DPLA 1.0 μg/ml, ReLPS 0.1 μg/ml", "result": 28.5, "unit": "% fluorescence"}, {"measurement": "Activation (% fluorescence)", "setting": "70Z/3 cells; Table 5, DPLA 1.0 μg/ml, ReLPS 0.3 μg/ml", "result": 48.5, "unit": "% fluorescence"}, {"measurement": "Activation (% fluorescence)", "setting": "70Z/3 cells; Table 5, DPLA 1.0 μg/ml, ReLPS 1.0 μg/ml", "result": 57.5, "unit": "% fluorescence"}, {"measurement": "Activation (% fluorescence)", "setting": "70Z/3 cells; Table 5, DPLA 1.0 μg/ml, ReLPS 10 μg/ml", "result": 75.5, "unit": "% fluorescence"}, {"measurement": "Activation (% fluorescence)", "setting": "70Z/3 cells; Table 5, DPLA 3.0 μg/ml, ReLPS 0", "result": 2.56, "unit": "% fluorescence"}, {"measurement": "Activation (% fluorescence)", "setting": "70Z/3 cells; Table 5, DPLA 3.0 μg/ml, ReLPS 0.1 μg/ml", "result": 13.5, "unit": "% fluorescence"}, {"measurement": "Activation (% fluorescence)", "setting": "70Z/3 cells; Table 5, DPLA 3.0 μg/ml, ReLPS 0.3 μg/ml", "result": 30, "unit": "% fluorescence"}, {"measurement": "Activation (% fluorescence)", "setting": "70Z/3 cells; Table 5, DPLA 3.0 μg/ml, ReLPS 1.0 μg/ml", "result": 55, "unit": "% fluorescence"}, {"measurement": "Activation (% fluorescence)", "setting": "70Z/3 cells; Table 5, DPLA 3.0 μg/ml, ReLPS 10 μg/ml", "result": 77, "unit": "% fluorescence"}, {"measurement": "Activation (% fluorescence)", "setting": "70Z/3 cells; Table 5, DPLA 10 μg/ml, ReLPS 0.1 μg/ml", "result": 4.5, "unit": "% fluorescence"}, {"measurement": "Activation (% fluorescence)", "setting": "70Z/3 cells; Table 5, DPLA 10 μg/ml, ReLPS 0.3 μg/ml", "result": 11, "unit": "% fluorescence"}, {"measurement": "Activation (% fluorescence)", "setting": "70Z/3 cells; Table 5, DPLA 10 μg/ml, ReLPS 1.0 μg/ml", "result": 25, "unit": "% fluorescence"}, {"measurement": "Activation (% fluorescence)", "setting": "70Z/3 cells; Table 5, DPLA 10 μg/ml, ReLPS 10 μg/ml", "result": 69, "unit": "% fluorescence"}, {"measurement": "Activation (% fluorescence)", "setting": "70Z/3 cells; Table 6, DPLA 3.0 μg/ml added at 0 h relative to ReLPS 0.1 μg/ml", "result": 10.5, "unit": "% fluorescence"}, {"measurement": "Activation (% fluorescence)", "setting": "70Z/3 cells; Table 6, DPLA 3.0 μg/ml added at 2 h relative to ReLPS 0.1 μg/ml", "result": 20, "unit": "% fluorescence"}, {"measurement": "Activation (% fluorescence)", "setting": "70Z/3 cells; Table 6, DPLA 3.0 μg/ml added at 4 h relative to ReLPS 0.1 μg/ml", "result": 24, "unit": "% fluorescence"}, {"measurement": "Activation (% fluorescence)", "setting": "70Z/3 cells; Table 6, DPLA 3.0 μg/ml added at 6 h relative to ReLPS 0.1 μg/ml", "result": 24.5, "unit": "% fluorescence"}, {"measurement": "Activation (% fluorescence)", "setting": "70Z/3 cells; Table 6, DPLA 3.0 μg/ml added at 8 h relative to ReLPS 0.1 μg/ml", "result": 9.5, "unit": "% fluorescence"}, {"measurement": "Activation (% fluorescence)", "setting": "70Z/3 cells; Table 6, DPLA 3.0 μg/ml added at 16 h relative to ReLPS 0.1 μg/ml", "result": 44, "unit": "% fluorescence"}, {"measurement": "Activation (% fluorescence)", "setting": "70Z/3 cells; Table 6, DPLA 3.0 μg/ml added at 20 h relative to ReLPS 0.1 μg/ml", "result": 54, "unit": "% fluorescence"}, {"measurement": "Activation (% fluorescence)", "setting": "70Z/3 cells; Table 6, DPLA 3.0 μg/ml added at 24 h relative to ReLPS 0.1 μg/ml", "result": 55.5, "unit": "% fluorescence"}, {"measurement": "Activation (% fluorescence)", "setting": "70Z/3 cells; Table 6, DPLA 3.0 μg/ml added at -2 h relative to ReLPS 0.1 μg/ml", "result": 11, "unit": "% fluorescence"}, {"measurement": "antagonism of LPS-induced activation of 70Z/3 pre-B cells", "setting": "70Z/3 cells; in words", "result": "effective antagonist in the LPS-induced activation of 70Z/3 pre-B cells; also recorded: block LPS-inducted immunoglobulin synthesis by 70Z/3 pre-B cells"}, {"measurement": "IL-1 induction, CPM", "setting": "peritoneal macrophages; DPLA 0.1 μg/ml 2 h before ReLPS 0.1 μg/ml", "result": "51,999 (4860) CPM"}, {"measurement": "IL-1 induction, CPM - Blank", "setting": "peritoneal macrophages; DPLA 0.1 μg/ml + ReLPS 0.1 μg/ml", "result": "44,211 CPM"}, {"measurement": "IL-1 induction, CPM", "setting": "peritoneal macrophages; DPLA 1.0 μg/ml 2 h before ReLPS 0.1 μg/ml", "result": "28,276 (4860) CPM"}, {"measurement": "IL-1 induction, CPM - Blank", "setting": "peritoneal macrophages; DPLA 1.0 μg/ml + ReLPS 0.1 μg/ml", "result": "20,491 CPM"}, {"measurement": "IL-1 induction, CPM", "setting": "peritoneal macrophages; DPLA 10.0 μg/ml 2 h before ReLPS 0.1 μg/ml", "result": "5,892 (886) CPM"}, {"measurement": "IL-1 induction, CPM - Blank", "setting": "peritoneal macrophages; DPLA 10.0 μg/ml + ReLPS 0.1 μg/ml", "result": 0, "unit": "CPM"}, {"measurement": "% Inhibition of IL-1 induction by ReLPS", "setting": "peritoneal macrophages; DPLA 10.0 μg/ml, ReLPS 0.1 μg/ml (1:100)", "result": "total"}, {"measurement": "IL-1 induction, CPM - Blank", "setting": "peritoneal macrophages; DPLA alone 0.1 μg/ml", "result": 0, "unit": "CPM"}, {"measurement": "IL-1 induction, CPM", "setting": "peritoneal macrophages; DPLA alone 0.1 μg/ml", "result": "3,511 (616) CPM"}, {"measurement": "IL-1 induction, CPM - Blank", "setting": "peritoneal macrophages; DPLA alone 1.0 μg/ml", "result": 0, "unit": "CPM"}, {"measurement": "IL-1 induction, CPM", "setting": "peritoneal macrophages; DPLA alone 1.0 μg/ml", "result": "2,911 (383) CPM"}, {"measurement": "IL-1 induction, CPM - Blank", "setting": "peritoneal macrophages; DPLA alone 10.0 μg/ml", "result": 0, "unit": "CPM"}, {"measurement": "IL-1 induction, CPM", "setting": "peritoneal macrophages; DPLA alone 10.0 μg/ml", "result": "3,764 (785) CPM"}, {"measurement": "induction of IL-1 release", "setting": "peritoneal macrophages; in words", "result": "unable to induce interleukin-1 release; also recorded: no IL-1/releasing activity"}, {"measurement": "induction of IL-1 release", "setting": "peritoneal macrophages; in words, listed as pentaacyl DPLA", "result": "unable to induce 1L-1"}, {"measurement": "blocking of ReLPS-induced IL-1 release", "setting": "peritoneal macrophages; in words", "result": "blocked this activity by toxic deep rough chemotype LPS; also recorded: antogonize the induction of IL-1 release by toxic Re LPS; also recorded: blocked the release of IL-1"}]}]}
